According to US20230210116A1, “HONEYBEE REPELLENT” (EARTH CORPORATION, priority 2020, published 2023):
Structures can show the parent of a compound that is named as a salt.

Columns and labels:
[1] = system: honeybees; assay: Test for Confirmation of Honeybee Repelling Effect 1, 2, 3 (feeding station with 40% sugar water); format: in vivo; conditions: for Corrected repelling rate (%) Honeybees: Test 3, 5 mL
Description: The following were used as the test samples for Examples: 2% by weight per volume ethanol solutions of octane (a-1), tetradecane (a-2), heptadecane (a-3), nonadecane (a-4), 2-acetylfuran (b-1), 5-methyl-2-furaldehyde (b-2), furfural (b-3), furaneol (c-1), 2-acetylpyrrole (d-1), 1-benzylpyrrole (d-2), 1-octanol (e-1), 1-dodecanol (e-2), and 1-octadecanol (e-3), respectively; and 2% by weight per volume aqueous solutions of furfuryl alcohol (b-4), sotolon (c-2), and α-angelicalactone (c-3), respectively.
The following were used as the test samples for Comparative Examples: 2% by weight per volume ethanol solutions of eicosane (carbon number 20, p-1), heneicosane (carbon number 21, p-2), 2-methyloctane (branched alkane, p-3), tributyl o-acetylcitrate (p-4), and 1-methylpyrrole (p-5), respectively; and 2% by weight per volume aqueous solutions of 2-methyltetrahydrofuran-3-one (p-6) and acetic acid (p-7), respectively.
Ethanol alone and water alone were used as samples for correction.
The cotton pads 13 were impregnated with 40% sugar water (80 g), after which disposable wooden chopsticks 15 (80 mm in length) were placed over the cotton pads on the lid surface as “landing areas,” for use as “test insect (honeybee) feeding station 1” 10.
A nest box of test insects (honeybees) (1 colony: approx. 6,000 bees) was placed at the center of a glass hothouse (bottom face: 5 m×10 m, height (highest part): 3 m, temperature: 25° C.), and the aforementioned “test insect (honeybee) feeding station 1” was installed at a location 2 meters away from the nest box.
After confirming that at least five test insects (honeybees) were feeding at the above “test insect (honeybee) feeding station 1” installed in the hothouse, test 1 was conducted to measure the “approaching count (Mz)” and “landing count (My)” and calculate the “landing rate (Mx).”
Next, the “test insect (honeybee) feeding station 1” installed in the hothouse was replaced with each “test insect (honeybee) feeding station 2” which was let to stand still for 5 minutes, after which test 2 was conducted to measure the “approaching count (Nz)” and “landing count (Ny)” and calculate the “landing rate (Nx).”
Approaching count: Total number of times a honeybee has approached within 25 cm of the cotton wools at the feeding station during 5 minutes
Landing count: Total number of honeybees that have remained for at least 1 second on the cotton pads at the feeding station during 5 minutes
Landing rate (%): (Landing count/Approaching count)×100
The “repelling rate Q” and “corrected repelling rate R” were calculated from the above “landing rates” using the calculation formula below. For the “repelling rate of sample for correction” used to calculate the “corrected repelling rate R,” the repelling rate of each of the samples for correction above (ethanol alone or water alone being a solvent for the active ingredient) was used.
Repelling rate Q (%)={(Mx)−(Nx)}/(Mx)×100
Corrected repelling rate R (%)={Repelling rate of test sample−Repelling rate of sample for correction}/{100−Repelling rate of sample for correction}×100
The following were used as the test samples for Examples: 0.1% by weight per volume ethanol solutions of 3-methyl-2-butanol (e-4), carvacrol (x-1), isoeugenol (x-2), cinnamyl alcohol (x-3), diacetone alcohol (x-4), α-amylcinnamaldehyde (x-5), 3-methyl-2-butenal (x-6), valeraldehyde (x-7), ethyl cinnamate (x-8), methyl cinnamate (x-9), ethyl isovalerate (x-10), isoamyl formate (x-11), 5-ethyl-2-methylpyridine (x-12), 2-(3-phenylpropyl)pyridine (x-13), 2,6-dimethylpyridine (x-14), ß-ionone (x-15), 2-acetylthiazole (x-16), butylamine (x-17), and citronella oil (x-18), respectively; and a 0.1% by weight per volume aqueous solution of (3-amino-3-carboxypropyl)dimethylsulfonium chloride (x-19).

[2] = system: stink bugs; assay: Test for Confirmation of Stink Bug Behaviors against Active Ingredients 1, 2, 3 (treated filter paper); format: in vivo, southern green stink bugs
Description: The test samples in “Test for Confirmation of Honeybee Repelling Effect 1” above were used.
A liquid calcium carbonate/ethanol dispersion was applied on the entire interior wall of a KP cup (100 mm in diameter×90 mm in height) and air-dried, after which a filter paper (90 mm in diameter) was fixed on the bottom face of the KP cup using double-sided tape. A different filter paper (90 mm in diameter) was cut along its diameter and the resulting semicircle-shaped paper was uniformly treated with 400 μL of each test sample or sample for correction, and then placed over the filter paper fixed on the aforementioned bottom face of the KP cup by allowing the circular parts to overlap, for use as a testing device.
The “repelling rate Y” and “corrected repelling rate Z” were calculated from the above “time A (sec)” and “time B (sec)” using the calculation formula below. For the “repelling rate of sample for correction” used to calculate the “corrected repelling rate Z,” the repelling rate of each of the samples for correction above (ethanol alone or water alone being a solvent for the active ingredient) was used.
Corrected repelling rate Z (%)={Repelling rate of test sample−Repelling rate of sample for correction}/{100−Repelling rate of sample for correction}×100
For the test samples, the test samples in “Test for Confirmation of Honeybee Repelling Effect 2” above were used.

[3] = 0.1% by weight per volume solution
[4] = Test 3, 0.1% by weight per volume solution, 400 μL
[5] = Test 2, honeybees, 0.1% by weight per volume solution, 5 mL (active ingredient 5 mg)
[6] = Test 2, 0.1% by weight per volume solution, 400 μL
[7] = Test 1, 2% by weight per volume solution
[8] = Test 1, honeybees, 2% by weight per volume solution, 5 mL sprayed (active ingredient 0.1 g)
[9] = Test 1, 2% by weight per volume solution, 400 μL on filter paper, 30 minutes

Compound | Corrected repelling rate (%) Honeybees [1, 3] [%] | repelling of stink bugs and other injurious insects to be exterminated (in words) [2] | Corrected repelling rate (%) Stinkbugs [2, 4] | Corrected repelling rate R (%) [1, 5] [%] | Corrected repelling rate (%) Stinkbugs [2, 6] [%] | other results
COc1ccc(C(=O)O)cc1OC [y-75, 3,4-dimethoxybenzoic acid] | 70.6 | not repelling stink bugs | ∘ | – | – | –
CCCCCCC(=O)OCC [y-54, ethyl heptanoate] | 20.9 | – | ∘ | – | – | –
CC(=O)OCCc1ccccc1 [y-20, phenethyl acetate] | 58.9 | not repelling stink bugs | ∘ | – | – | –
COc1cc(C=O)ccc1O [y-7, vanillin] | 61.2 | not repelling stink bugs | ∘ | – | – | –
Oc1cccc2nccnc12 [y-85, 5-hydroxyquinoxaline] | 71.5 | not repelling stink bugs | ∘ | – | – | –
COc1ccc(C=O)cc1 [y-4, anisaldehyde] | 91.5 | – | – | – | – | Corrected repelling rate (%) Stinkbugs ([2]; 0.5 h, 0.1 % strength): x (“x” for rates “not <0”)
c1coc(Cn2cccc2)c1 [d-3, 1-furfurylpyrrole] | 25.4 | – | ∘ | – | – | –
C=C(C)C1CC=C(C=O)CC1 (stereo not drawn) [y-8, perillaldehyde] | 94.7 | – | – | – | – | Corrected repelling rate (%) Stinkbugs ([2]; 0.5 h, 0.1 % strength): x (“x” for rates “not <0”)
CCCCC=O [x-7, valeraldehyde] | – | – | – | 50.7 | <0 | –
CCCCCCCC [a-1, octane] | – | – | – | – | – | repelling effect / repelled behaviors of honeybees (in words) [1, 7]: excellent repelling effect; Corrected repelling rate R (%) [1, 8]: 57.0%; Corrected repelling rate (%) Stinkbugs [2, 9]: <0%
CC(C)=CCC/C(C)=C/COC=O [y-28, geranyl formate] | 98.0 | not repelling stink bugs | ∘ | – | – | –
C=CCOC(=O)CCCCC [y-49, allyl hexanoate] | 33.5 | – | ∘ | – | – | –
c1ccc(CCCc2ccccn2)cc1 [x-13, 2-(3-phenylpropyl)pyridine] | – | – | – | 86.4 | <0 | –
CCOc1cc(C=O)ccc1O [y-6, ethyl vanillin] | 60.3 | – | – | – | – | Corrected repelling rate (%) Stinkbugs ([2]; 0.5 h, 0.1 % strength): x (“x” for rates “not <0”)
c1ccc2ncccc2c1 [y-81, quinoline] | 80.2 | not repelling stink bugs | ∘ | – | – | –
CC(C)=CC=O [x-6, 3-methyl-2-butenal] | – | – | – | 91.8 | <0 | –
c1ccc2cnccc2c1 [y-79, isoquinoline] | 92.3 | not repelling stink bugs | ∘ | – | – | –

Compound | Corrected repelling rate (%) Honeybees [1, 3] [%] | repelling of stink bugs and other injurious insects to be exterminated (in words) [2] | Corrected repelling rate (%) Stinkbugs [2, 4] | Corrected repelling rate R (%) [1, 5] [%] | Corrected repelling rate (%) Stinkbugs [2, 6] [%] | other results
OCc1ccco1 [b-4, furfuryl alcohol] | – | – | – | – | – | Corrected repelling rate R (%) ([1]; 2 % strength): 94.8%; Corrected repelling rate (%) Stinkbugs ([2]; 0.5 h, 2 % strength): <0%
CC(C)C(C)O (stereo not drawn) [e-4, 3-methyl-2-butanol] | – | – | – | 17.7 | <0 | –
CCCC(=O)O [y-73, butyric acid] | 33.0 | – | ∘ | – | – | –
Cc1cccc(C)n1 [x-14, 2,6-dimethylpyridine] | – | – | – | 50.0 | <0 | –
CCc1ccc(C)nc1 [x-12, 5-ethyl-2-methylpyridine] | – | – | – | 72.4 | <0 | –
CCCCCCCC1CCCC(=O)O1 (stereo not drawn) [y-65, δ-dodecalactone] | 86.6 | not repelling stink bugs | ∘ | – | – | –
CCOC(=O)c1ccc(O)cc1 [y-17, ethyl 4-hydroxybenzoate] | 56.6 | not repelling stink bugs | ∘ | – | – | –
CCOC(=O)C=Cc1ccccc1 [x-8, ethyl cinnamate] | – | – | – | 21.8 | <0 | –
O=CC=Cc1ccccc1 [y-5, cinnamaldehyde] | 94.4 | not repelling stink bugs | ∘ | – | – | honeybee repelling rate ([1]; Test 3, summary in text): ≥ 50%
C[S+](C)CCC(N)C(=O)O.[Cl-] (stereo not drawn) [x-19, (3-amino-3-carboxypropyl)dimethylsulfonium chloride] | – | – | – | 40.9 | <0 | –
CCC(=O)Oc1c(C)occc1=O [y-96, maltol propionate] | 57.5 | not repelling stink bugs | ∘ | – | – | –
CC(C)CC=O [y-14, isovaleraldehyde] | 65.5 | not repelling stink bugs | ∘ | – | – | –
CCOC(=O)CC(C)(C)C [y-42, ethyl tert-butylacetate] | 27.7 | – | ∘ | – | – | –
CC1=C(O)C(=O)OC1C (stereo not drawn) [c-2, sotolon] | – | – | – | – | – | repelling effect / repelled behaviors of honeybees (in words) [1, 7]: excellent repelling effect; Corrected repelling rate R (%) [1, 8]: 79.7%; Corrected repelling rate (%) Stinkbugs [2, 9]: <0%
CCOC(=O)CC(C)C [x-10, ethyl isovalerate] | – | – | – | 61.0 | <0 | –
COC(=O)C=Cc1ccccc1 [x-9, methyl cinnamate] | – | – | – | 93.3 | <0 | –
